# What was measured:
# Staphylococcus aureus [1] = assay: Antibacterial activity against methicillin-resistant Staphylococcus aureus clinical isolate M12 by CLSI based micro-broth dilution method; assay type: functional
# Staphylococcus aureus [2] = assay: Antibacterial activity against methicillin-resistant Staphylococcus aureus clinical isolate M23 by CLSI based micro-broth dilution method; assay type: functional
# Staphylococcus aureus [3] = assay: Antibacterial activity against methicillin-resistant Staphylococcus aureus clinical isolate M22 by CLSI based micro-broth dilution method; assay type: functional
# Staphylococcus aureus [4] = assay: Antibacterial activity against methicillin-resistant Staphylococcus aureus clinical isolate M13 by CLSI based micro-broth dilution method; assay type: functional
# Escherichia coli = assay: Antibacterial activity against Escherichia coli ATCC 25922 by CLSI based micro-broth dilution method; assay type: functional
# [5] = Hemolytic activity in sheep erythrocytes incubated for 1 hr by absorbance based assay; assay type: toxicity, cell-based, Ovis aries, Erythrocyte
# [6] = Selectivity index, ratio of HC50 for hemolytic activity in sheep erythrocytes to MIC for antibacterial activity against Staphylococcus aureus ATCC 29213; assay type: toxicity, cell-based, RBC
# Staphylococcus aureus [7] = assay: Antibacterial activity against methicillin-resistant Staphylococcus aureus clinical isolate M11 by CLSI based micro-broth dilution method; assay type: functional
# Staphylococcus aureus [8] = assay: Antibacterial activity against methicillin-resistant Staphylococcus aureus clinical isolate M17 by CLSI based micro-broth dilution method; assay type: functional
# Staphylococcus aureus [9] = assay: Antibacterial activity against methicillin-resistant Staphylococcus aureus clinical isolate M20 by CLSI based micro-broth dilution method; assay type: functional
# Staphylococcus aureus [10] = assay: Antibacterial activity against Staphylococcus aureus ATCC 29213 by CLSI based micro-broth dilution method; assay type: functional
# Staphylococcus aureus [11] = assay: Antibacterial activity against methicillin-resistant Staphylococcus aureus clinical isolate M21 by CLSI based micro-broth dilution method; assay type: functional
# Staphylococcus aureus [12] = assay: Antibacterial activity against methicillin-resistant Staphylococcus aureus clinical isolate M16 by CLSI based micro-broth dilution method; assay type: functional
# Staphylococcus aureus [13] = assay: Antibacterial activity against methicillin-resistant Staphylococcus aureus clinical isolate M14 by CLSI based micro-broth dilution method; assay type: functional
# Staphylococcus aureus [14] = assay: Antibacterial activity against methicillin-resistant Staphylococcus aureus N315 by CLSI based micro-broth dilution method; assay type: functional
Structure (SMILES),MIC (Staphylococcus aureus [1]),MIC (Staphylococcus aureus [2]),MIC (Staphylococcus aureus [3]),MIC (Staphylococcus aureus [4]),MIC (Escherichia coli),HC50 at 1 h [5],selectivity ratio [6],MIC (Staphylococcus aureus [7]),MIC (Staphylococcus aureus [8]),MIC (Staphylococcus aureus [9]),MIC (Staphylococcus aureus [10]),MIC (Staphylococcus aureus [11]),MIC (Staphylococcus aureus [12]),MIC (Staphylococcus aureus [13]),MIC (Staphylococcus aureus [14])
C=CCc1cc(-c2ccc(OCCC[N+](C)(C)CC(=O)NCCCC)c(CC=C)c2)c2oc(=S)n(Cc3ccc(F)cc3Cl)c2c1.[Br-],32 µg/mL,32 µg/mL,64 µg/mL,64 µg/mL,> 128 µg/mL,> 160 µg/mL,> 5,16 µg/mL,64 µg/mL,16 µg/mL,32 µg/mL,16 µg/mL,16 µg/mL,16 µg/mL,32 µg/mL
C=CCc1cc(-c2ccc(OCCC[N+](C)(C)CC(=O)NCCCC)c(CC=C)c2)c2oc(=S)n(Cc3ccc(Cl)c(Br)c3)c2c1.[Br-],> 128 µg/mL,> 128 µg/mL,128 µg/mL,> 128 µg/mL,> 128 µg/mL,> 160 µg/mL,1.3,128 µg/mL,128 µg/mL,> 128 µg/mL,> 128 µg/mL,128 µg/mL,> 128 µg/mL,> 128 µg/mL,> 128 µg/mL
C=CCc1cc(-c2ccc(OCCC[N+](C)(C)CC(=O)NCCCC)c(CC=C)c2)c2oc(=S)n(Cc3ccc(Cl)cc3Br)c2c1.[Br-],> 128 µg/mL,128 µg/mL,128 µg/mL,> 128 µg/mL,> 128 µg/mL,95.8 µg/mL,0.7,128 µg/mL,> 128 µg/mL,> 128 µg/mL,> 128 µg/mL,128 µg/mL,128 µg/mL,> 128 µg/mL,128 µg/mL
C=CCc1cc(-c2ccc(OCCC[N+](C)(C)CC(=O)NCCCC)c(CC=C)c2)c2oc(=S)n(Cc3ccc(F)c(Br)c3)c2c1.[Br-],4 µg/mL,8 µg/mL,32 µg/mL,8 µg/mL,> 128 µg/mL,42.1 µg/mL,2.6,8 µg/mL,16 µg/mL,4 µg/mL,16 µg/mL,4 µg/mL,8 µg/mL,8 µg/mL,16 µg/mL
C=CCc1cc(-c2ccc(OCCC[N+](C)(C)CC(=O)NCCCC)c(CC=C)c2)c2oc(=S)n(Cc3ccc(C(F)(F)F)cc3)c2c1.[Br-],4 µg/mL,8 µg/mL,16 µg/mL,4 µg/mL,> 128 µg/mL,> 160 µg/mL,> 20,4 µg/mL,16 µg/mL,4 µg/mL,8 µg/mL,8 µg/mL,8 µg/mL,8 µg/mL,16 µg/mL
C=CCc1ccc(O)c(-c2ccc(O)c(CC=C)c2)c1 [HONOKIOL],8 µg/mL,16 µg/mL,16 µg/mL,16 µg/mL,> 128 µg/mL,> 80 µg/mL,> 2.5,16 µg/mL,16 µg/mL,8 µg/mL,32 µg/mL,16 µg/mL,16 µg/mL,16 µg/mL,8 µg/mL
C=CCc1cc(-c2ccc(OCCC[N+](C)(C)CC(=O)NCCCC)c(CC=C)c2)c2oc(=S)n(Cc3ccc(OC)cc3)c2c1.[Br-],2 µg/mL,8 µg/mL,8 µg/mL,4 µg/mL,> 128 µg/mL,57.4 µg/mL,1.8,2 µg/mL,16 µg/mL,2 µg/mL,32 µg/mL,2 µg/mL,4 µg/mL,2 µg/mL,32 µg/mL
C=CCc1cc(-c2ccc(OCCC[N+](C)(C)CC(=O)NCCCC)c(CC=C)c2)c2oc(=S)n(Cc3ccc(Cl)cc3Cl)c2c1.[Br-],> 128 µg/mL,> 128 µg/mL,> 128 µg/mL,> 128 µg/mL,> 128 µg/mL,> 160 µg/mL,1.3,> 128 µg/mL,> 128 µg/mL,> 128 µg/mL,> 128 µg/mL,> 128 µg/mL,> 128 µg/mL,> 128 µg/mL,128 µg/mL
C=CCc1cc(-c2ccc(OCCC[N+](C)(C)CC(=O)NCCCC)c(CC=C)c2)c2oc(=S)n(Cc3ccccc3F)c2c1.[Br-],4 µg/mL,8 µg/mL,32 µg/mL,8 µg/mL,> 128 µg/mL,> 160 µg/mL,> 20,4 µg/mL,8 µg/mL,8 µg/mL,8 µg/mL,4 µg/mL,8 µg/mL,8 µg/mL,8 µg/mL

# Source: ChEMBL document CHEMBL6127052, “Discovery of membrane-targeting amphiphilic honokiol derivatives containing an oxazolethione moiety to combat methicillin-resistant Staphylococcus aureus (MRSA) infections” (Eur J Med Chem, 2024)
